# According to US4157392A, “Pharmacologically active substituted 1,2,4-triazines” (Diamond Shamrock Corporation, priority 1978, dated 1979):
# Structures can show the parent of a compound that is named as a salt. Where two headings read alike, the source gives them in different places.
# Legend:
# [1] = test system: phenylquinone writhing in mice; test: Phenylquinone Writhing Assay (analgesia); format: in vivo, mouse (Carworth CF1 male mice); conditions: for responders at 70 mg/kg: 70 mg/kg oral
# Experimental: The phenylquinone writhing test was employed to evaluate analgesic activity according to the following procedure:
# Phenylquinone (phenyl-p-benzoquinone, No. 7104, Eastman Organic Chemicals) is made up as a 0.02% aqueous solution in 5% ethyl alcohol. Phenylquinone solutions are made up fresh twice daily. Standard reference agents and the test compounds are dissolved or suspended in a 0.25% methylcellulose solution. A control group consisting of ten mice (Carworth CF1 male mice) are administered the 0.02% phenylquinone solution at a dose of 0.25 ml/mouse. The mice are housed individually and observed closely for ten minutes for exhibition of writhing. The onset of writhing occurs within three minutes and 100% of the mice must writhe within ten minutes. Test compounds are administered orally to groups of ten mice. The volume given is 0.01 ml/gram of body weight. Activity can be studied at 15, 30, 60, and 120 minutes after oral administration. After the designated time interval of a dose group has elapsed, the mice are challenged with phenylquinone intraperitoneally. Complete blocking of the writhing syndrom for the ten minute observation period in any one mouse is considered a positive analgesic response for that mouse. Conversely, if any mouse writhes definitely once it is considered not to be protected. The number of mice not writhing in group multiplied by ten equals percent analgesia for that dose at that time interval.
# [2] = test system: carrageenin-induced edema in the hind paw of a rat; test: Carrageenin Assay (carrageenin-induced edema, hind paw); format: in vivo, rat (male, Long Evans strain); conditions: 1 h before carrageenin, edema at 3 h, compared to phenylbutazone control values; for inhibition in vivo at 175 mg/kg: 175 mg/kg oral; for inhibition in vivo at 150 mg/kg: 150 mg/kg oral
# Experimental: The procedure employed is a modification of the method of Winter et al, Proc. Soc. Exptl. Biol. Med. 111:544 (1962). The device used for measurement of the paw volume is an adaptation of the water displacement procedure described by Adamkiewicz et al, Can. J. Biochem. Physiol. 33:332 (1955). Test compounds were administered orally, one hour prior to the intraplantar injection of 0.05 ml. of sterile 1.0 percent solution of carrageenin into the left hind paw of male rats (Long Evans strain) weighing between about 130-200 grams. At peak swelling time (3 hours) the volume of edema was calculated by differential paw volumes.
# Table I sets forth the results obtained (indicated as percent reduction of edema compared to phenylbutazone control values) at the indicated dosages for each of the identified compounds.
# [3] = Mus musculus, po, 0.5 h, 100 mg/kg oral, 30 Min., read-out: Phenylquinone Writhing Assay (% Control), percent analgesia
# [4] = Rattus norvegicus, read-out: % Reduction of Edema
# [5] = Mus musculus, po, 0.5 h, 50 mg/kg oral, 30 Min., read-out: Phenylquinone Writhing Assay (% Control), percent analgesia
# [6] = Rattus norvegicus, 200 mg/kg oral, read-out: % Reduction of Edema
# [7] = Mus musculus, po, 0.5 h, 30 Min., read-out: Phenylquinone Writhing Assay (% Control), percent analgesia
# [8] = Mus musculus, po, 1 h, 100 mg/kg oral, 60 Min, read-out: Phenylquinone Writhing Assay (% Control), percent analgesia
molecule,measurement,setting,value
"3-methoxy-5,6-di(4'-methylphenoxy)-1,2,4-triazine [Example 26]","Phenylquinone Writhing Assay (% Control), percent analgesia","[1]; 25 mg/kg oral, 15 Min.",10%
same,"Phenylquinone Writhing Assay (% Control), percent analgesia","[1]; 25 mg/kg oral, 30 Min.",10%
same,"Phenylquinone Writhing Assay (% Control), percent analgesia","[1]; 25 mg/kg oral, 60 Min",10%
same,"Phenylquinone Writhing Assay (% Control), percent analgesia","[1]; 50 mg/kg oral, 15 Min.",40%
same,"Phenylquinone Writhing Assay (% Control), percent analgesia","[1]; 50 mg/kg oral, 30 Min.",10%
same,"Phenylquinone Writhing Assay (% Control), percent analgesia","[1]; 50 mg/kg oral, 60 Min",20%
same,"Phenylquinone Writhing Assay (% Control), percent analgesia","[1]; 100 mg/kg oral, 15 Min.",20%
same,"Phenylquinone Writhing Assay (% Control), percent analgesia","[1]; 100 mg/kg oral, 30 Min.",50%
same,"Phenylquinone Writhing Assay (% Control), percent analgesia","[1]; 100 mg/kg oral, 60 Min",50%
same,% Reduction of Edema,[2]; 200 mg/kg oral,12%
"CSc1nncc(-c2ccccc2)n1 [Example 1, 3-methylthio-5-phenyl-1,2,4-triazine]",responders at 50 mg/kg,"[1]; Mus musculus, po, 0.25 h, 50 mg/kg oral, 15 Min., read-out: Phenylquinone Writhing Assay (% Control), percent analgesia",10%
same,responders at 100 mg/kg,[1]; [3],10%
same,inhibition in vivo at 175 mg/kg,[2]; [4],27%
"CSc1nncc(C(C)(C)C)n1 [Example 4, 3-methylthio-5-t-butyl-1,2,4-triazine]",responders at 100 mg/kg,[1]; [3],20%
same,inhibition in vivo at 150 mg/kg,[2]; [4],57%
"CC(C)(C)c1cnnc(NN)n1 [Example 5, 3-hydrazino-5-t-butyl-1,2,4-triazine]",responders at 25 mg/kg,"[1]; Mus musculus, po, 0.5 h, 25 mg/kg oral, 30 Min., read-out: Phenylquinone Writhing Assay (% Control), percent analgesia",20%
same,inhibition in vivo at 175 mg/kg,[2]; [4],82%
"CSc1nncc(-c2cccs2)n1 [Example 6, 3-methylthio-5-(2'-thienyl)-1,2,4-triazine]",responders at 25 mg/kg,"[1]; Mus musculus, po, 0.25 h, 25 mg/kg oral, 15 Min., read-out: Phenylquinone Writhing Assay (% Control), percent analgesia",20%
same,responders at 50 mg/kg,[1]; [5],70%
same,inhibition in vivo at 200 mg/kg,[2]; [6],51%
"COc1nncc(-c2cccc(C(F)(F)F)c2)n1 [Example 8, 3-methoxy-5-(3'-trifluoromethylphenyl)-1,2,4-triazine]",responders at 70 mg/kg,[1]; [7],10%
same,inhibition in vivo at 100 mg/kg,"[2]; Rattus norvegicus, 100 mg/kg oral, read-out: % Reduction of Edema",77%
"CSc1nncc(-c2ccco2)n1 [Example 9, 3-methylthio-5-(2-furyl)-1,2,4-triazine]",responders at 50 mg/kg,[1]; [5],50%
same,responders at 50 mg/kg,"[1]; Mus musculus, po, 1 h, 50 mg/kg oral, 60 Min, read-out: Phenylquinone Writhing Assay (% Control), percent analgesia",10%
same,inhibition in vivo at 200 mg/kg,[2]; [6],39%
"CSc1nnc(C)c(C)n1 [Example 10, 3-methylthio-5,6-dimethyl-1,2,4-triazine]",responders at 100 mg/kg,[1]; [3],70%
same,responders at 100 mg/kg,[1]; [8],20%
same,inhibition in vivo at 70 mg/kg,"[2]; Rattus norvegicus, 70 mg/kg oral, read-out: % Reduction of Edema",54%
"CSc1nnc(-c2ccccn2)c(-c2ccccn2)n1 [Example 12, 3-methylthio-5,6-(2'-pyridyl)-1,2,4-triazine]",responders at 100 mg/kg,[1]; [3],10%
same,responders at 100 mg/kg,[1]; [8],20%
same,inhibition in vivo at 200 mg/kg,[2]; [6],19%
"CSc1nncc(-c2c[nH]c3ccccc23)n1 [Example 13, 3-methylthio-5-(3'-indolyl)-1,2,4-triazine]",inhibition in vivo at 200 mg/kg,[2]; [6],71%
"CSc1nnc(-c2ccc(NC(C)=O)cc2)c(-c2ccc(NC(C)=O)cc2)n1 [Example 14, 3-methylthio-5,6-(4'-acetamidophenyl)-1,2,4-triazine]",inhibition in vivo at 200 mg/kg,[2]; [6],12%
"COc1nncc(C)n1 [Example 17, 3-methoxy-5-methyl-1,2,4-triazine]",inhibition in vivo at 200 mg/kg,[2]; [6],8%
"COc1nncc(C(C)(C)C)n1 [Example 18, 3-methoxy-5-t-butyl-1,2,4-triazine]",responders at 50 mg/kg,[1]; [5],40%
same,inhibition in vivo at 200 mg/kg,[2]; [6],64%
"COc1nncc(-c2ccco2)n1 [Example 20, 3-methoxy-5-(2'-furyl)-1,2,4-triazine]",responders at 30 mg/kg,"[1]; Mus musculus, po, 0.5 h, 30 mg/kg oral, 30 Min., read-out: Phenylquinone Writhing Assay (% Control), percent analgesia",10%
same,inhibition in vivo at 175 mg/kg,[2]; [4],70%
"CCOc1nncc(-c2ccccc2)n1 [Example 21, 3-ethoxy-5-phenyl-1,2,4-triazine]",inhibition in vivo at 200 mg/kg,[2]; [6],96%
"COc1nncc(-c2ccc3ccccc3c2)n1 [Example 22, 3-methoxy-5-(2'-naphthyl)-1,2,4-triazine]",responders at 100 mg/kg,"[1]; Mus musculus, po, 0.25 h, 100 mg/kg oral, 15 Min., read-out: Phenylquinone Writhing Assay (% Control), percent analgesia",20%
same,responders at 100 mg/kg,[1]; [3],10%
same,responders at 100 mg/kg,[1]; [8],10%
same,inhibition in vivo at 200 mg/kg,[2]; [6],7%
"COc1nnc(C)c(C)n1 [Example 23, 3-methoxy-5,6-dimethyl-1,2,4-triazine]",inhibition in vivo at 40 mg/kg,"[2]; Rattus norvegicus, 40 mg/kg oral, read-out: % Reduction of Edema",4%
"Cc1nnc(OC(C)C)nc1C [Example 24, 3-isopropoxy-5,6-dimethyl-1,2,4-triazine]",responders at 70 mg/kg,[1]; [7],10%
same,inhibition in vivo at 200 mg/kg,[2]; [6],37%
"COc1nnc(-c2ccccn2)c(-c2ccccn2)n1 [Example 27, 3-methoxy-5,6-di(2'-pyridyl)-1,2,4-triazine]",inhibition in vivo at 200 mg/kg,[2]; [6],46%
"COc1ccc(-c2cnnc(SC)n2)cc1OC [Example 33, 3-methylthio-5-(3',4'-dimethoxyphenyl)-1,2,4-triazine]",inhibition in vivo at 200 mg/kg,[2]; [6],32%
"COc1nncc(C23CC4CC(CC(C4)C2)C3)n1 [Example 36, 3-methoxy-5-(1'-adamantyl)-1,2,4-triazine]",inhibition in vivo at 150 mg/kg,[2]; [4],30%
"COc1nncc(C2CC2)n1 [Example 41, 3-methoxy-5-cyclopropyl-1,2,4-triazine]",inhibition in vivo at 200 mg/kg,[2]; [6],57%
"COc1nncc(-c2ccc(Br)cc2)n1 [Example 45, 3-methoxy-5-(4'-bromophenyl)-1,2,4-triazine]",inhibition in vivo at 200 mg/kg,[2]; [6],33%
"COc1ccc(-c2cnnc(OC)n2)cc1 [Example 46, 3-methoxy-5-(4'-methoxyphenyl)-1,2,4-triazine]",inhibition in vivo at 200 mg/kg,[2]; [6],17%
"C=CCOc1nncc(-c2ccccc2)n1 [Example 47, 3-allyloxy-5-phenyl-1,2,4-triazine]",inhibition in vivo at 200 mg/kg,[2]; [6],67%
"Clc1nnc(-c2ccccc2)c(-c2ccccc2)n1 [Example 51, 3-chloro-5,6-diphenyl-1,2,4-triazine]",inhibition in vivo at 200 mg/kg,[2]; [6],4%
"Cc1nnc(SCc2ccccc2)nc1C [Example 56, 3-benzylthio-5,6-dimethyl-1,2,4-triazine]",inhibition in vivo at 200 mg/kg,[2]; [6],52%
"CSc1nncc(-c2ccc([N+](=O)[O-])cc2)n1 [Example 57, 3-methylthio-5-(4'-nitrophenyl)-1,2,4-triazine]",inhibition in vivo at 200 mg/kg,[2]; [6],16%
"COc1nncc(-c2ccc(F)cc2F)n1 [Example 58, 3-methoxy-5-(2',4'-difluorophenyl)-1,2,4-triazine]",inhibition in vivo at 150 mg/kg,[2]; [4],36%
"CSc1nncc(-c2ccccc2)n1 [Example 59, 3-methylthio-5-phenyl-1,2,4-triazine (hydrogen iodide salt)]",inhibition in vivo at 150 mg/kg,[2]; [4],14%
"Cc1ccc(Oc2nnc(-c3ccccc3)c(-c3ccccc3)n2)cc1 [Example 60, 3-(4'-methylphenoxy)-5,6-diphenyl-1,2,4-triazine]",inhibition in vivo at 200 mg/kg,[2]; [6],18%
"CCOc1nnc(-c2ccccc2)c(-c2ccccc2)n1 [Example 61, 3-ethoxy-5,6-diphenyl-1,2,4-triazine]",inhibition in vivo at 200 mg/kg,[2]; [6],12%
"CCc1ccc(-c2cnnc(SC)n2)cc1 [Example 62, 3-methylthio-5-(4'-ethylphenyl)-1,2,4-triazine]",inhibition in vivo at 200 mg/kg,[2]; [6],33%
"COc1ccc(Oc2nncc(-c3ccccc3)n2)cc1 [Example 63, 3-(4'-methoxyphenoxy)-5-phenyl-1,2,4-triazine]",inhibition in vivo at 200 mg/kg,[2]; [6],15%
"CCCCCOc1nncc(-c2ccccc2)n1 [Example 64, 3-n-pentoxy-5-phenyl-1,2,4-triazine]",inhibition in vivo at 200 mg/kg,[2]; [6],29%
"NCC(=O)NNc1nncc(-c2ccccc2)n1 [Example 113, N2-(5-Phenyl-1,2,4-Triazin-3-yl) Glycine Hydrazide (Dihydrobromide Hydrate)]",inhibition in vivo at 50 mg/kg,"[2]; Rattus norvegicus, 50 mg/kg oral, read-out: % Reduction of Edema",32%
